# Values of other authors as cited in publication PMC8559537 (ACS infectious diseases, 2021).
# Tested on: nanoluciferase (Nluc) expressing C. parvum
# Conditions: positive control, 100 mg/kg
smiles,measurement,value
CCOc1ccc2cc(-c3nn(CC4CCN(C)CC4)c4ncnc(N)c34)ccc2n1 [BKI-1369],effect on infection in the IFN-γ KO mouse model,reduce infection quickly
